Test results as given in ChEMBL document CHEMBL6109104, “Synthesis and antibacterial evaluations of novel vancomycin analogues targeting bacteria membrane to combat Gram-negative infections” (Eur J Med Chem, 2025).
In brackets after ≈: the same amount, converted by molar mass.

Tests used:
Type in all cases: functional
Conditions in all cases: time 16-18 hrs
Escherichia coli [1] = experiment: Antibacterial activity against Escherichia coli ATCC25922 incubated for 16 to 18 hrs by muller hinton broth based microplate reader analysis
Acinetobacter baumannii [2] = experiment: Antibacterial activity against Acinetobacter baumannii ATCC17978 incubated for 16 to 18 hrs by muller hinton broth based microplate reader analysis
Staphylococcus aureus [3] = experiment: Antibacterial activity against methicillin-resistant Staphylococcus aureus USA300 incubated for 16 to 18 hrs by muller hinton broth based microplate reader analysis
Staphylococcus aureus [4] = experiment: Antibacterial activity vancomycin-intermediate resistant Staphylococcus aureus incubated for 16 to 18 hrs by muller hinton broth based microplate reader analysis
Acinetobacter baumannii [5] = experiment: Antibacterial activity against Acinetobacter baumannii ATCC19606 incubated for 16 to 18 hrs by muller hinton broth based microplate reader analysis
Escherichia coli [6] = experiment: Antibacterial activity against Escherichia coli ATCC35150 incubated for 16 to 18 hrs by muller hinton broth based microplate reader analysis

Row | SMILES | MIC (Escherichia coli [1]) | MIC (Acinetobacter baumannii [2]) | MIC (Staphylococcus aureus [3]) | MIC (Staphylococcus aureus [4]) | MIC (Acinetobacter baumannii [5]) | MIC (Escherichia coli [6])
1 | CCCCCCCCCCCCCCCCCC[N+]1(C)CCN(C(=O)[C@H]2NC(=O)[C@H]3NC(=O)[C@H](NC(=O)[C@@H]4NC(=O)[C@H](CC(N)=O)NC(=O)[C@H](NC(=O)[C@@H](CC(C)C)NC)[C@H](O)c5ccc(c(Cl)c5)Oc5cc4cc(c5O[C@@H]4O[C@H](CO)[C@@H](O)[C@H](O)[C@H]4O[C@H]4C[C@](C)(N)[C@H](O)[C@H](C)O4)Oc4ccc(cc4Cl)[C@H]3O)c3ccc(O)c(c3)-c3c(O)cc(O)cc32)CC1.[Br-] (stereo in doubt) | > 128 mg/L | > 128 mg/L | 1 mg/L | 64 mg/L | > 128 mg/L | > 128 mg/L
2 | CN[C@H](CC(C)C)C(=O)N[C@H]1C(=O)N[C@@H](CC(N)=O)C(=O)N[C@H]2C(=O)N[C@H]3C(=O)N[C@H](C(=O)N[C@H](C(=O)O)c4cc(O)cc(O)c4-c4cc3ccc4O)[C@H](O)c3ccc(c(Cl)c3)Oc3cc2cc(c3O[C@@H]2O[C@H](CO)[C@@H](O)[C@H](O)[C@H]2O[C@H]2C[C@](C)(NC(=O)CCCCCCC[n+]3ccc(C)cc3)[C@H](O)[C@H](C)O2)Oc2ccc(cc2Cl)[C@H]1O.[Br-] | > 128 mg/L | > 128 mg/L | 8 mg/L | > 128 mg/L | > 128 mg/L | > 128 mg/L
3 | CCCCCCCCCC[n+]1ccc(C(=O)NCCNC(=O)[C@H]2NC(=O)[C@H]3NC(=O)[C@H](NC(=O)[C@@H]4NC(=O)[C@H](CC(N)=O)NC(=O)[C@H](NC(=O)[C@@H](CC(C)C)NC)[C@H](O)c5ccc(c(Cl)c5)Oc5cc4cc(c5O[C@@H]4O[C@H](CO)[C@@H](O)[C@H](O)[C@H]4O[C@H]4C[C@](C)(N)[C@H](O)[C@H](C)O4)Oc4ccc(cc4Cl)[C@H]3O)c3ccc(O)c(c3)-c3c(O)cc(O)cc32)cc1.[Br-] | > 128 mg/L | 32 mg/L | 2 mg/L | 64 mg/L | 16 mg/L | > 128 mg/L
4 | CN[C@H](CC(C)C)C(=O)N[C@H]1C(=O)N[C@@H](CC(N)=O)C(=O)N[C@H]2C(=O)N[C@H]3C(=O)N[C@H](C(=O)N[C@H](C(=O)N4CCN(C)CC4)c4cc(O)cc(O)c4-c4cc3ccc4O)[C@H](O)c3ccc(c(Cl)c3)Oc3cc2cc(c3O[C@@H]2O[C@H](CO)[C@@H](O)[C@H](O)[C@H]2O[C@H]2C[C@](C)(N)[C@H](O)[C@H](C)O2)Oc2ccc(cc2Cl)[C@H]1O (stereo in doubt) | > 128 mg/L | > 128 mg/L | 4 mg/L (≈ 2.61 µM) | > 128 mg/L | > 128 mg/L | > 128 mg/L
5 | CCCCCCCCCCCC[N+]1(C)CCN(C(=O)c2ccc(CN[C@@]3(C)C[C@H](O[C@H]4[C@H](Oc5c6cc7cc5Oc5ccc(cc5Cl)[C@@H](O)[C@@H](NC(=O)[C@@H](CC(C)C)NC)C(=O)N[C@@H](CC(N)=O)C(=O)N[C@H]7C(=O)N[C@H]5C(=O)N[C@H](C(=O)N[C@H](C(=O)O)c7cc(O)cc(O)c7-c7cc5ccc7O)[C@H](O)c5ccc(c(Cl)c5)O6)O[C@H](CO)[C@@H](O)[C@@H]4O)O[C@@H](C)[C@H]3O)cc2)CC1.[Br-] | > 128 mg/L | 32 mg/L | 2 mg/L | 64 mg/L | 16 mg/L | > 128 mg/L
6 | CCCCCCCCCCCCCC[N+]1(C)CCN(C(=O)c2ccc(CN[C@@]3(C)C[C@H](O[C@H]4[C@H](Oc5c6cc7cc5Oc5ccc(cc5Cl)[C@@H](O)[C@@H](NC(=O)[C@@H](CC(C)C)NC)C(=O)N[C@@H](CC(N)=O)C(=O)N[C@H]7C(=O)N[C@H]5C(=O)N[C@H](C(=O)N[C@H](C(=O)O)c7cc(O)cc(O)c7-c7cc5ccc7O)[C@H](O)c5ccc(c(Cl)c5)O6)O[C@H](CO)[C@@H](O)[C@@H]4O)O[C@@H](C)[C@H]3O)cc2)CC1.[Br-] | > 128 mg/L | > 128 mg/L | 2 mg/L | 64 mg/L | > 128 mg/L | > 128 mg/L
7 | CCCCCCCCCC[N+]1(C)CCN(C(=O)[C@H]2NC(=O)[C@H]3NC(=O)[C@H](NC(=O)[C@@H]4NC(=O)[C@H](CC(N)=O)NC(=O)[C@H](NC(=O)[C@@H](CC(C)C)NC)[C@H](O)c5ccc(c(Cl)c5)Oc5cc4cc(c5O[C@@H]4O[C@H](CO)[C@@H](O)[C@H](O)[C@H]4O[C@H]4C[C@](C)(N)[C@H](O)[C@H](C)O4)Oc4ccc(cc4Cl)[C@H]3O)c3ccc(O)c(c3)-c3c(O)cc(O)cc32)CC1.[Br-] (stereo in doubt) | 16 mg/L | 32 mg/L | 1 mg/L | 1 mg/L | 32 mg/L | 16 mg/L
8 | CCCCCCCCCCCCCCCC[N+]1(C)CCN(C(=O)[C@H]2NC(=O)[C@H]3NC(=O)[C@H](NC(=O)[C@@H]4NC(=O)[C@H](CC(N)=O)NC(=O)[C@H](NC(=O)[C@@H](CC(C)C)NC)[C@H](O)c5ccc(c(Cl)c5)Oc5cc4cc(c5O[C@@H]4O[C@H](CO)[C@@H](O)[C@H](O)[C@H]4O[C@H]4C[C@](C)(N)[C@H](O)[C@H](C)O4)Oc4ccc(cc4Cl)[C@H]3O)c3ccc(O)c(c3)-c3c(O)cc(O)cc32)CC1.[Br-] (stereo in doubt) | 64 mg/L | > 128 mg/L | 8 mg/L | > 128 mg/L | > 128 mg/L | > 128 mg/L
9 | CN[C@H](CC(C)C)C(=O)N[C@H]1C(=O)N[C@@H](CC(N)=O)C(=O)N[C@H]2C(=O)N[C@H]3C(=O)N[C@H](C(=O)N[C@H](C(=O)O)c4cc(O)cc(O)c4-c4cc3ccc4O)[C@H](O)c3ccc(c(Cl)c3)Oc3cc2cc(c3O[C@@H]2O[C@H](CO)[C@@H](O)[C@H](O)[C@H]2O[C@H]2C[C@](C)(NC(=O)CCCCCCCCCCC[n+]3cccc(F)c3)[C@H](O)[C@H](C)O2)Oc2ccc(cc2Cl)[C@H]1O.[Br-] | > 128 mg/L | > 128 mg/L | 4 mg/L | 64 mg/L | > 128 mg/L | > 128 mg/L
10 | CN[C@H](CC(C)C)C(=O)N[C@H]1C(=O)N[C@@H](CC(N)=O)C(=O)N[C@H]2C(=O)N[C@H]3C(=O)N[C@H](C(=O)N[C@H](C(=O)O)c4cc(O)cc(O)c4-c4cc3ccc4O)[C@H](O)c3ccc(c(Cl)c3)Oc3cc2cc(c3O[C@@H]2O[C@H](CO)[C@@H](O)[C@H](O)[C@H]2O[C@H]2C[C@](C)(NC(=O)CCCCCCCCCCC[n+]3ccc(C)cc3)[C@H](O)[C@H](C)O2)Oc2ccc(cc2Cl)[C@H]1O.[Br-] | > 128 mg/L | > 128 mg/L | 4 mg/L | > 128 mg/L | > 128 mg/L | > 128 mg/L
11 | CCCCCCCCCCCC[n+]1ccc(C(=O)NCCNC(=O)[C@@H]2NC(=O)[C@H]3NC(=O)[C@H](NC(=O)[C@@H]4NC(=O)[C@H](CC(N)=O)NC(=O)[C@H](NC(=O)[C@@H](CC(C)C)NC)[C@H](O)c5ccc(c(Cl)c5)Oc5cc4cc(c5O[C@@H]4O[C@H](CO)[C@@H](O)[C@H](O)[C@H]4O[C@H]4C[C@](C)(N)[C@H](O)[C@H](C)O4)Oc4ccc(cc4Cl)[C@H]3O)c3ccc(O)c(c3)-c3c(O)cc(O)cc32)cc1.[Br-] (stereo in doubt) | > 128 mg/L | 64 mg/L | 2 mg/L | 64 mg/L | 16 mg/L | > 128 mg/L
12 | CN[C@H](CC(C)C)C(=O)N[C@H]1C(=O)N[C@@H](CC(N)=O)C(=O)N[C@H]2C(=O)N[C@H]3C(=O)N[C@H](C(=O)N[C@H](C(=O)O)c4cc(O)cc(O)c4-c4cc3ccc4O)[C@H](O)c3ccc(c(Cl)c3)Oc3cc2cc(c3O[C@@H]2O[C@H](CO)[C@@H](O)[C@H](O)[C@H]2O[C@H]2C[C@](C)(NC(=O)CCCCCCCCCCC[n+]3cccc(Br)c3)[C@H](O)[C@H](C)O2)Oc2ccc(cc2Cl)[C@H]1O.[Br-] | > 128 mg/L | > 128 mg/L | 4 mg/L | 32 mg/L | > 128 mg/L | > 128 mg/L
